In the experiment the target is human PAD4 (hPAD4) (Homo sapiens, UniProt Q9UM07). The experiment can be described thus: RFMS human PAD4 functional assay (rapid-fire mass spectrum). The class given is biochemical. Particulars: 5 nM hPAD4 enzyme, 250 μM BAEE, 50 μM Calcium; 30 min preincubation, 90 min reaction at 37° C. The essentials: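 PAD4 (10 nM) preincubated 30 min with compound (top final 50 μM), then BAEE substrate added in pH 7.5 HEPES buffer with DTT, 50 μM calcium, TPEN; 90 min at 37° C. After TCA quench, citrulline derivatized with phenyl glyoxal (4 mM final, 30 min, 37° C) and quantified by RapidFire MS against internal standard.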

Each structure is given as a SMILES string.

human PAD4 (hPAD4), sequence (Q9UM07 whole entry): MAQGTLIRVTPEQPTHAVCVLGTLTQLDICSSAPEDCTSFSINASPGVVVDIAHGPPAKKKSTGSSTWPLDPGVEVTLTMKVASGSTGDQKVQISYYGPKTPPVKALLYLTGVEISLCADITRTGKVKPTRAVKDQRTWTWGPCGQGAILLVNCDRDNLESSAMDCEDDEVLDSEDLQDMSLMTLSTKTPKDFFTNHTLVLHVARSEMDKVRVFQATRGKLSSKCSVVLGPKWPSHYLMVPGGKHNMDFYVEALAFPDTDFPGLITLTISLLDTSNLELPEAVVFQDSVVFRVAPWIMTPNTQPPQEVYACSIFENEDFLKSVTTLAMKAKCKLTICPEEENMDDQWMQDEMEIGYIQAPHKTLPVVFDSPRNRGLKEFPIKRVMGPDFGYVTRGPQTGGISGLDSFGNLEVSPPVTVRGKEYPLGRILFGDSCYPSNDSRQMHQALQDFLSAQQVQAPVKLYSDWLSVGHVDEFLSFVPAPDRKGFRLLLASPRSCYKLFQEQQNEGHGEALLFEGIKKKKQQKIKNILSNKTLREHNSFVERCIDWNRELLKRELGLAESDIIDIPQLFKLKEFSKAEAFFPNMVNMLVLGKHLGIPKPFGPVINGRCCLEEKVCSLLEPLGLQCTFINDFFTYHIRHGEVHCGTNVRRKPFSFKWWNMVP

As for `N[C@@H]1C2CCC1N(C(=O)c1cc(Cl)c3c(c1)nc(-c1cc4ccccc4n1CC1CC1)n3CC1CN(C(=O)c3ccccc3)C1)C2` (stereo partly drawn) [Example 143, (1R,4R,7R)-2-{1-[(1-benozylazetidin-3-yl)methyl]-7-chloro-2-[1-(cyclopropylmethyl)-1H-indol-2-yl]-1H-1,3-benzodiazole-5-carbonyl}-2-azabicyclo[2.2.1]heptan-7-amine], the IC50 turned out to be 23 nM. On to `CCS(=O)(=O)N1CC(Cn2c(-c3cc4cccnc4n3CC3CC3)nc3cc(C(=O)N4CC5CCC4[C@@H]5N)cc(OC)c32)C1` (stereo partly drawn) [Example 336, (1R,4R.,7R)-2-{2-[1-(cyclopropylmethyl)-1H-pyrrolo[2,3-b]pyridin-2-yl]-1-{[1-(ethanesulfonyl)azetidin-3-yl]methyl}-7-methoxy-1H-1,3-benzodiazole-5-carbonyl}-2-azabicyclo[2.2,1]heptan-7-amine], for which the IC50 was 310 nM. Under `COc1cc(C(=O)N2C[C@H]3CC[C@@H]2[C@@H]3N)cc2nc(-c3cc4ccccc4n3CC3CC3)n(CC3CN(C(=O)c4ccc(C#N)cc4F)C3)c12` [Example 163, 4-[3-({5-[(1R,4R,7R)-7-amino-2-azabicyclo[2.2.1]heptane-2-carbonyl]-2-[1-(cyclopropylmethyl)-1H-indol-2-yl]-7-methoxy-1H-1,3-benzodiazol-1-yl}methyl)azetidine-1-carbonyl]-3-fluorobenzonitrile] stands 26 nM; under `COc1cc(C(=O)N2CC3CCC2[C@@H]3N)cc2nc(-c3cc4cccnc4n3CC3CC3)n(CC3CN(C(=O)c4ccc(F)cc4F)C3)c12` (stereo partly drawn) [Example 434, (7R)-2-{2-[1-(cyclopropylmethyl)-1H-pyrrolo[2,3-b]pyridin-2-yl]-1-{[1-(2,4-difluorobenzoyl)azetidin-3-yl]methyl}-7-methoxy-1H-1,3-benzodiazole-5-carbonyl}-2-azabicyclo[2.2.1]heptan-7-amine], 33 nM.

In the case of `Cn1cc(Cn2c(-c3cc4cccnc4n3CC3CC3)nc3cc(C(=O)N4CC5CCC4[C@@H]5N)cc(F)c32)cn1` (stereo partly drawn) [Example 491, (7R)-2-{2-[1-(cyclopropylmethyl)-1H-pyrrolo[2,3-b]pyridin-2-yl]-7-fluoro-1-[(1-methyl-1H-pyrazol-4-yl)methyl]-1H-1,3-benzodiazole-5-carbonyl}-2-azabicyclo[2.2.1]heptan-7-amine], the half-inhibitory concentration (IC50) was 57 nM. Under `COc1cc(C(=O)N2C[C@H](N)C[C@@H](F)C2)cc2nc(-c3cc4ccccc4n3CC3CC3)n(CCCN3CCCC3=O)c12` [Example 274, 1-(3-{5-[(3R,5R)-3-amino-5-fluoropiperidine-1-carbonyl]-2-[1-(cyclopropylmethyl)-1H-indol-2-yl]-7-methoxy-1H-1,3-benzodiazol-1-yl}propyl)pyrrolidin-2-one] stands 261 nM. Under `COc1cc(C(=O)N2C[C@H](N)C[C@@H](F)C2)cc2nc(-c3cc4ccccc4n3CC3CC3)n(Cc3cnn(C)c3C)c12` [Example 506, (3R,5R)-1-{2-[1-(cyclopropylmethyl)-1H-indol-2-yl]-1-[(1,5-dimethyl-1H-pyrazol-4-yl)methyl]-7-methoxy-1H-1,3-benzodiazole-5-carbonyl}-5-fluoropiperidin-3-amine] stands 225 nM; under `COc1ccc2cc(-c3nc4cc(C(=O)N5C[C@H]6CC[C@@H]5[C@@H]6N)cc(OC)c4n3CC3CN(c4ncncc4C#N)C3)n(CC3CC3)c2n1` [Example 24, 4-[3-({5-[(1R,4R,7R)-7-amino-2-azabicyclo[2.2.1]heptane-2-carbonyl]-2-[1-(cyclopropylmethyl)-6-methoxy-1H-pyrrolo[2,3-b]pyridin-2-yl]-7-methoxy-1H-1,3-benzodiazol-1-yl}methyl)azetidin-1-yl]pyrimidine-5-carbonitrile], 68 nM. Under `COc1cc(C(=O)N2C[C@H]3CC[C@@H]2[C@@H]3N)cc2nc(-c3cc4ccc(Cl)cc4n3CC3CC3)n(CC3CN(c4ccnc(C(N)=O)n4)C3)c12` [Example 8, 4-[3-({5-[(1R,4R,7R)-7-amino-2-azabicyclo[2.2.1]heptane-2-carbonyl]-2-[6-chloro-1-(cyclopropylmethyl)-1H-indol-2-yl]-7-methoxy-1H-1,3-benzodiazol-1-yl}methyl)azetidin-1-yl]pyrimidine-2-carboxamide] stands 18 nM; under `N#Cc1ccc(C(=O)N2CC(Cn3c(-c4cc5cccnc5n4CC4CC4)nc4cc(C(=O)N5CC6CCC5[C@@H]6N)cc(F)c43)C2)cc1` (stereo partly shown) [Example 462], 70 nM; under `COc1cc(C(=O)N2C[C@H]3CC[C@@H]2[C@@H]3N)cc2nc(-c3cc4cccnc4n3CC3CC3)n(C3CN(C(=O)c4ccnc(O)c4)C3)c12` [Example 190, 4-(3-{5-[(1R,4R,7R)-7-amino-2-azabicyclo[2.2.1]heptane-2-carbonyl]-2-[1-(cyclopropylmethyl)-1H-pyrrolo[2,3-b]pyridin-2-yl]-7-methoxy-1H-1,3-benzodiazol-1-yl}azetidine-1-carbonyl)pyridin-2-ol], 782 nM.

For the compound `COc1cc(C(=O)N2C[C@H]3CC[C@@H]2[C@@H]3N)cc2nc(-c3cc4ccccc4n3CC3CC3)n(CC3CN(C(=O)c4cc(C#N)ccc4F)C3)c12` [Example 174, 3-[3-({5-[(1R,4R,7R)-7-amino-2-azabicyclo[2.2.1]heptane-2-carbonyl]-2-[1-(cyclopropylmethyl)-1H-indol-2-yl]-7-methoxy-1H-1,3-benzodiazol-1-yl}methyl)azetidine-1-carbonyl]-4-fluorobenzonitrile], the 50% inhibitory concentration (IC50) was found to be 64 nM. Next, `COc1cc(C(=O)N2C[C@H]3CC[C@@H]2[C@@H]3N)cc2nc(-c3cc4ccccc4n3CC3CC3)n(Cc3cnn(Cc4ccccc4)c3)c12` [Example 259, (1R,4R,7R)-2-{1-[(1-benzyl-1H-pyrazol-4-yl)methyl]-2-[1-(cyclopropylmethyl)-1H-indol-2-yl]-7-methoxy-1H-1,3-benzodiazole-5-carbonyl}-2-azabicyclo[2.2.1]heptan-7-amine]: 44 nM; `COc1cc(C(=O)N2C[C@H]3CC[C@@H]2[C@@H]3N)cc2nc(-c3cc4cccnc4n3CC3CC3)n(CC3CN(c4ccnc(C#N)n4)C3)c12` [Example 5, 4-[3-({5-[(1R,4R,7R)-7-amino-2-azabicyclo[2.2.1]heptane-2-carbonyl]-2-[1-(cyclopropylmethyl)-1H-pyrrolo[2,3-b]pyridin-2-yl]-7-methoxy-1H-1,3-benzodiazol-1-yl}methyl)azetidin-1-yl]pyrimidine-2-carbonitrile]: 51 nM. Under `COc1cc(C(=O)N2CC3CCC2[C@@H]3N)cc2nc(-c3cc4ccccc4n3CC3CC3)n(Cc3ccn(C)n3)c12` (stereo partly drawn) [Example 498, (7R)-2-{2-[1-(cyclopropylmethyl)-1H-indol-2-yl]-7-methoxy-1-[(1-methyl-1H-pyrazol-3-yl)methyl]-1H-1,3-benzodiazole-5-carbonyl}-2-azabicyclo[2.2.1]heptan-7-amine] stands 92 nM; under `COc1cc(C(=O)N2C[C@H]3CC[C@@H]2[C@@H]3N)cc2nc(-c3cc4cccnc4n3CC3CC3)n(C3CN(C(=O)c4ccnc(Cl)c4)C3)c12` [Example 98, (1R,4R,7R)-2-{1-[1-(2-chloropyridine-4-carbonyl)azetidin-3-yl]-2-[1-(cyclopropylmethyl)-1H-pyrrolo[2,3-b]pyridin-2-yl]-7-methoxy-1H-1,3-benzodiazole-5-carbonyl}-2-azabicyclo[2.2.1]heptan-7-amine], 71 nM.

The values above are taken from patent US12692254B2, “Benzimidazole inhibitors of PAD enzymes” (BRISTOL-MYERS SQUIBB COMPANY, priority 2018, dated 2026).
